# Measured values: ChEMBL document CHEMBL5614375, “PepExplainer: An explainable deep learning model for selection-based macrocyclic peptide bioactivity prediction and optimization” (Eur J Med Chem, 2024)
# Bridge positions count the residues as written; N and C are the ends. Peptide text beside a SMILES is read from it.
# Target: T1, IL17-RE-IL-17C (Homo sapiens, UniProt Q8NFR9+Q9P0M4)
# T1 sequence (Q9P0M4 whole entry): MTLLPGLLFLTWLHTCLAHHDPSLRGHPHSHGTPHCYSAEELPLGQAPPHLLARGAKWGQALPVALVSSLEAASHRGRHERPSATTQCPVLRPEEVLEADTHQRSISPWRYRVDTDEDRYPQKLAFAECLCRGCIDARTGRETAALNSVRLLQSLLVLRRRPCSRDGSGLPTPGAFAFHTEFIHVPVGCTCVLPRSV
# T1 sequence (Q8NFR9 whole entry): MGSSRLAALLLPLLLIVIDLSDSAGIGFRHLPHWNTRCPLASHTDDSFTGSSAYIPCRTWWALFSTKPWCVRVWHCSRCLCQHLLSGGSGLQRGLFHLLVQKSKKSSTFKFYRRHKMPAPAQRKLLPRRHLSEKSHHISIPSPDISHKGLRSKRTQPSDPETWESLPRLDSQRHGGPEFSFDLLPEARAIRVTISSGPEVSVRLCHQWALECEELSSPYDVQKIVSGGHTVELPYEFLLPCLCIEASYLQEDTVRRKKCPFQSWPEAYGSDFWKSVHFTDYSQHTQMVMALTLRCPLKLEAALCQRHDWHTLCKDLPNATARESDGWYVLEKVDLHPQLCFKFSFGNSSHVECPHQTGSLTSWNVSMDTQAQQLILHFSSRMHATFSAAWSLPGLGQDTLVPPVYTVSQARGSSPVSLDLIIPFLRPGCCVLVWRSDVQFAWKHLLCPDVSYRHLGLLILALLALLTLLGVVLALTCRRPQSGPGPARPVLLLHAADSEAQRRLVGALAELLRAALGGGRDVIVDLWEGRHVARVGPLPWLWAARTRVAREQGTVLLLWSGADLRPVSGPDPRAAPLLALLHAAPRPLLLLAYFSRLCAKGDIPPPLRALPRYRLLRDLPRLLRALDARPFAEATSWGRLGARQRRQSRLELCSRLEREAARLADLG
# Test: Inhibition of interleukin-17RE/biotinylated IL-17C protein-protein interaction (unknown origin) incubated for 1 hrs by competitive ELISA
# Assay type: protein-complex assay
row,SMILES,IC50 [nM]
1,CC(C)C[C@@H]1NC(=O)[C@H](CC(=O)O)NC(=O)CNC(=O)[C@H](Cc2ccc(O)cc2)NC(=O)[C@H](CC(C)C)NC(=O)[C@H](CO)NC(=O)[C@H](CCCNC(=N)N)NC(=O)[C@H](Cc2c[nH]cn2)NC(=O)[C@H](Cc2ccc(O)cc2)NC(=O)[C@H](Cc2c[nH]cn2)NC(=O)[C@H](Cc2c[nH]cn2)NC(=O)[C@H](Cc2ccc(O)cc2)NC(=O)CSC[C@@H](C(=O)NCC(N)=O)NC(=O)CNC1=O ({CH2CO}-YHHYHRSLYGDLGCG-NH2; thioether N-14),> 30000
2,CC[C@H](C)[C@@H]1NC(=O)[C@H](CCCNC(=N)N)NC(=O)[C@H](Cc2ccc(O)cc2)NC(=O)[C@H](Cc2ccc(O)cc2)NC(=O)[C@H](CCCCN)NC(=O)[C@H](Cc2c[nH]cn2)NC(=O)[C@H](Cc2ccc(O)cc2)NC(=O)CSC[C@@H](C(=O)NCC(N)=O)NC(=O)CNC(=O)[C@H](CC(C)C)NC(=O)[C@H](CCC(=O)O)NC(=O)CNC(=O)[C@H](Cc2ccc(O)cc2)NC(=O)[C@H](CC(C)C)NC1=O ({CH2CO}-YHKYYRILYGELGCG-NH2; thioether N-14),89
3,CC[C@H](C)[C@@H]1NC(=O)[C@H](Cc2c[nH]cn2)NC(=O)[C@H](Cc2ccc(O)cc2)NC(=O)CSC[C@@H](C(=O)NCC(N)=O)NC(=O)CNC(=O)[C@H](CC(C)C)NC(=O)[C@H](CC(=O)O)NC(=O)CNC(=O)[C@H](Cc2ccc(O)cc2)NC(=O)[C@H](CC(C)C)NC(=O)[C@H](CO)NC(=O)[C@H](CCCNC(=N)N)NC(=O)[C@H](Cc2ccc(O)cc2)NC(=O)[C@H](Cc2ccc(O)cc2)NC1=O ({CH2CO}-YHIYYRSLYGDLGCG-NH2; thioether N-14),1.7
4,CC[C@H](C)[C@@H]1NC(=O)[C@H](CCCNC(=N)N)NC(=O)[C@H](Cc2ccc(O)cc2)NC(=O)[C@H](Cc2ccc(O)cc2)NC(=O)[C@H](CCCNC(=N)N)NC(=O)[C@H](Cc2c[nH]cn2)NC(=O)[C@H](Cc2ccc(O)cc2)NC(=O)CSC[C@@H](C(=O)NCC(N)=O)NC(=O)CNC(=O)[C@H](CC(C)C)NC(=O)[C@H](CCC(=O)O)NC(=O)CNC(=O)[C@H](Cc2ccc(O)cc2)NC(=O)[C@H](CC(C)C)NC1=O ({CH2CO}-YHRYYRILYGELGCG-NH2; thioether N-14),108
5,CC[C@H](C)[C@@H]1NC(=O)[C@H](CCCNC(=N)N)NC(=O)[C@H](Cc2ccc(O)cc2)NC(=O)[C@H](Cc2ccc(O)cc2)NC(=O)[C@H](CCC(=O)O)NC(=O)[C@H](Cc2c[nH]cn2)NC(=O)[C@H](Cc2ccc(O)cc2)NC(=O)CSC[C@@H](C(=O)NCC(N)=O)NC(=O)CNC(=O)[C@H](CC(C)C)NC(=O)[C@H](CCC(=O)O)NC(=O)CNC(=O)[C@H](Cc2ccc(O)cc2)NC(=O)[C@H](CC(C)C)NC1=O ({CH2CO}-YHEYYRILYGELGCG-NH2; thioether N-14),86
6,CC[C@H](C)[C@@H]1NC(=O)[C@H](CCCNC(=N)N)NC(=O)[C@H](Cc2ccc(O)cc2)NC(=O)[C@H](Cc2ccc(O)cc2)NC(=O)[C@H](Cc2c[nH]cn2)NC(=O)[C@H](Cc2c[nH]cn2)NC(=O)[C@H](Cc2ccc(O)cc2)NC(=O)CSC[C@@H](C(=O)NCC(N)=O)NC(=O)CNC(=O)[C@H](CC(C)C)NC(=O)[C@H](CCCCN)NC(=O)CNC(=O)[C@H](Cc2ccc(O)cc2)NC(=O)[C@H](CC(C)C)NC1=O ({CH2CO}-YHHYYRILYGKLGCG-NH2; thioether N-14),73
7,CC[C@H](C)[C@@H]1NC(=O)[C@H](CCCNC(=N)N)NC(=O)[C@H](Cc2ccc(O)cc2)NC(=O)[C@H](Cc2ccc(O)cc2)NC(=O)[C@H](CCC(N)=O)NC(=O)[C@H](Cc2c[nH]cn2)NC(=O)[C@H](Cc2ccc(O)cc2)NC(=O)CSC[C@@H](C(=O)NCC(N)=O)NC(=O)CNC(=O)[C@H](CC(C)C)NC(=O)[C@H](CCC(=O)O)NC(=O)CNC(=O)[C@H](Cc2ccc(O)cc2)NC(=O)[C@H](CC(C)C)NC1=O ({CH2CO}-YHQYYRILYGELGCG-NH2; thioether N-14),15
8,CC(C)C[C@@H]1NC(=O)[C@H](CC(=O)O)NC(=O)CNC(=O)[C@H](Cc2ccc(O)cc2)NC(=O)[C@H](CC(C)C)NC(=O)[C@H](CO)NC(=O)[C@H](CCCNC(=N)N)NC(=O)[C@H](Cc2ccc(O)cc2)NC(=O)[C@H](Cc2ccc(O)cc2)NC(=O)[C@H](Cc2c[nH]cn2)NC(=O)[C@H](CCC(N)=O)NC(=O)[C@H](Cc2ccc(O)cc2)NC(=O)CSC[C@@H](C(=O)NCC(N)=O)NC(=O)CNC1=O ({CH2CO}-YQHYYRSLYGDLGCG-NH2; thioether N-14),> 30000
9,CC[C@H](C)[C@@H]1NC(=O)[C@H](CCCNC(=N)N)NC(=O)[C@H](Cc2ccc(O)cc2)NC(=O)[C@H](Cc2ccc(O)cc2)NC(=O)[C@H](Cc2c[nH]cn2)NC(=O)[C@H](Cc2c[nH]cn2)NC(=O)[C@H](Cc2ccc(O)cc2)NC(=O)CSC[C@@H](C(=O)NCC(N)=O)NC(=O)CNC(=O)[C@H](CC(C)C)NC(=O)[C@H](CCC(=O)O)NC(=O)CNC(=O)[C@H](Cc2ccc(O)cc2)NC(=O)[C@H](Cc2ccccc2)NC1=O ({CH2CO}-YHHYYRIFYGELGCG-NH2; thioether N-14),23300
10,CC[C@H](C)[C@@H]1NC(=O)[C@H](CCCNC(=N)N)NC(=O)[C@H](Cc2ccc(O)cc2)NC(=O)[C@H](Cc2ccc(O)cc2)NC(=O)[C@H](Cc2c[nH]cn2)NC(=O)[C@H](Cc2c[nH]cn2)NC(=O)[C@H](Cc2ccc(O)cc2)NC(=O)CSC[C@@H](C(=O)NCC(N)=O)NC(=O)CNC(=O)[C@H](CC(C)C)NC(=O)[C@H](CC(N)=O)NC(=O)CNC(=O)[C@H](Cc2ccc(O)cc2)NC(=O)[C@H](CC(C)C)NC1=O ({CH2CO}-YHHYYRILYGNLGCG-NH2; thioether N-14),47
11,CC[C@H](C)[C@@H]1NC(=O)[C@H](CCCNC(=N)N)NC(=O)[C@H](Cc2ccc(O)cc2)NC(=O)[C@H](Cc2ccc(O)cc2)NC(=O)[C@H](Cc2c[nH]cn2)NC(=O)[C@H](Cc2c[nH]cn2)NC(=O)[C@H](Cc2ccc(O)cc2)NC(=O)CSC[C@@H](C(=O)NCC(N)=O)NC(=O)CNC(=O)[C@H](CC(C)C)NC(=O)[C@H](CC(=O)O)NC(=O)CNC(=O)[C@H](Cc2ccc(O)cc2)NC(=O)[C@H](CC(C)C)NC1=O ({CH2CO}-YHHYYRILYGDLGCG-NH2; thioether N-14),83
12,CC(C)C[C@@H]1NC(=O)[C@H](CC(=O)O)NC(=O)CNC(=O)[C@H](Cc2ccc(O)cc2)NC(=O)[C@H](CC(C)C)NC(=O)[C@H](CO)NC(=O)[C@H](CCCNC(=N)N)NC(=O)[C@H](Cc2ccc(O)cc2)NC(=O)[C@H](CC(N)=O)NC(=O)[C@H](Cc2c[nH]cn2)NC(=O)[C@H](Cc2c[nH]cn2)NC(=O)[C@H](Cc2ccc(O)cc2)NC(=O)CSC[C@@H](C(=O)NCC(N)=O)NC(=O)CNC1=O ({CH2CO}-YHHNYRSLYGDLGCG-NH2; thioether N-14),> 30000
13,CC(C)C[C@@H]1NC(=O)[C@H](C)NC(=O)[C@H](CCCNC(=N)N)NC(=O)[C@H](Cc2ccc(O)cc2)NC(=O)[C@H](Cc2ccc(O)cc2)NC(=O)[C@H](Cc2c[nH]cn2)NC(=O)[C@H](Cc2c[nH]cn2)NC(=O)[C@H](Cc2ccc(O)cc2)NC(=O)CSC[C@@H](C(=O)NCC(N)=O)NC(=O)CNC(=O)[C@H](CC(C)C)NC(=O)[C@H](CCC(=O)O)NC(=O)CNC(=O)[C@H](Cc2ccc(O)cc2)NC1=O ({CH2CO}-YHHYYRALYGELGCG-NH2; thioether N-14),254
